Measured values from article PMC9863027, “Bioactive Alpha-Pyrone and Phenolic Glucosides from the Marine-Derived Metarhizium sp. P2100” (Journal of Fungi, 2022).
Where two headings read alike, the source gives them in different places.

Experiments:
[1] = molecular target: protein tyrosine phosphatase 1B (PTP1B); conditions: read-out: IC50 against PTP1B, cited from earlier work
[2] = tested on: NO production in mouse macrophage; assay: NO production inhibitory activity in LPS-stimulated mouse macrophage (Griess reaction); type: cell-based; conditions: concentration of 50 μM; LPS 1 μg/mL; mean ± SD
Method: The bioassay for NO production inhibitory activity was conducted as described by Xia. The mouse macrophage was seeded in 96-well plates. In each well, lipopolysaccharide (LPS) (1 μg/mL) was added after treating it with or without the tested compound for 24 h. The NO production in the supernatant was detected by the Griess reaction. The absorbance at 540 nm was measured with a microplate reader. The NO concentration and the inhibitory rate were calculated through a calibration curve. Dexamethasone was used as the positive control. Experiments were operated in triplicate, and the data were described as the mean ± SD of three independent experiments.

α-amylase = molecular target: T1, α-amylase (Sus scrofa, UniProt P00690); assay: α-amylase inhibition activity (starch substrate, dinitrosalicylic acid reagent); type: biochemical; conditions: read-out: IC50 against α-amylase
T1 sequence (P00690 16-511): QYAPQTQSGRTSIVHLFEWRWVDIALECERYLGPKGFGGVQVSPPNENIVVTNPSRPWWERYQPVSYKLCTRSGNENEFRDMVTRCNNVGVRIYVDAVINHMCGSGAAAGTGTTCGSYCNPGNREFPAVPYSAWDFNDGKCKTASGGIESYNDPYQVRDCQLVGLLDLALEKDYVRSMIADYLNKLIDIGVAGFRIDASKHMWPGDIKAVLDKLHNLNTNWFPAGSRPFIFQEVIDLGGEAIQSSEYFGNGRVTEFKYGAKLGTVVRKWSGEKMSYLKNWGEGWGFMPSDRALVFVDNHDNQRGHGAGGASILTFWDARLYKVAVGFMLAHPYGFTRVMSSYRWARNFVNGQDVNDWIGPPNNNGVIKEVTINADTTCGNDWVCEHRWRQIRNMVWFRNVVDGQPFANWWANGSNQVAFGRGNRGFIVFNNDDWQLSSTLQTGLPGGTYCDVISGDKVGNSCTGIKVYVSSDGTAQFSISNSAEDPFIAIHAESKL
Method: The α-amylase inhibition activity was measured by Milella with minor modifications. Tested compounds and 1-Deoxynojirimycin (1-DNJ) were dissolved in methanol at different concentrations. A substrate solution was prepared with 0.25% starch dissolved in 20 mM phosphate buffer solution (PBS). The enzyme (10 units/mL of α-amylase in PBS, 25 µL) and sample solutions (25 µL) were mixed in Eppendorf vials, and the mixtures were incubated at 37 °C for 10 min. Then, 25 µL of substrate solution was added to each tube, and the reaction mixture was incubated at 37 °C for 10 min. The reaction was terminated by adding 150 µL of dinitrosalicylic acid color reagent. Subsequently, the test tubes were heated for 5 min at 100 °C. After cooling at room temperature, the absorbance was measured at 540 nm. The absorbance of the blank (enzyme solution was added during the boiling) and negative controls (methanol) were recorded. Analyses were performed in triplicate, and the final sample absorbance was obtained by subtracting its corresponding blank reading. The inhibitory activity (%) was calculated as follows: % inhibition=(1−A540 sample/A540 negative control) × 100%
The half-maximal inhibitory concentration (IC50) values were calculated according to the inhibition curve and the data were shown in the layout of mean ± SEM by GraphPad Prism 6.0 (GraphPad Software, Inc., La Jolla, CA, USA).

HEp-2 cells = tested on: HEp-2 cells; design: method as in earlier work; conditions: read-out: IC50 cytotoxicity against HEp-2; cited from earlier work
HepG2 cells = tested on: HepG2 cells; design: method as in earlier work; conditions: read-out: IC50 cytotoxicity against HepG2; cited from earlier work

| Molecule | NO production inhibition ratio (%) [2] | other results |
| --- | --- | --- |
| Lecaniside C | – | IC50 [1]: > 50 µM |
| COc1cc(C(C)=O)ccc1O[C@@H]1O[C@H](CO)[C@@H](OC)[C@H](O)[C@H]1O [Compound 4, Lecaniside D] | 68.10 ± 2.07% | – |
| C[C@@H]1C[C@H]2[C@@H]3CCC4=CC(=O)C=C[C@]4(C)[C@@]3(F)[C@@H](O)C[C@]2(C)[C@@]1(O)C(=O)CO [Dexamethasone, reference compound] | 63.88 ± 2.07% | – |
| 4-(4′-methoxy-β-D-glucosyl)-6-pentyl-2-pyrone [Compound 1] | 53.85 ± 2.32% | IC50 (α-amylase): 128 µM |
| CCCCC(OC1OC(CO)C(OC)C(O)C1O)c1cc(OC)cc(=O)o1 [Compound 2, 7(R)-(4′-methoxy-β-D-glucosyl)-4-methoxy-6-pentyl-2-pyrone] | 62.30 ± 1.46% | – |
| COc1c(O[C@@H]2O[C@H](CO[C@@H]3OC[C@H](O)[C@H](O)[C@H]3O)[C@@H](O)[C@H](O)[C@H]2O)cc(OC)c2c(=O)c3ccccc3oc12 [3-O-(6-O-α-L-arabinopyranosyl)-β-D-gluco-pyranosyl-1,4-dimethoxyxanthone] | – | IC50 (HEp-2 cells): 9 µM; IC50 (HepG2 cells): 16 µM |
| CCCCC(OC1OC(CO)C(OC)C(O)C1O)c1cc(OC)cc(=O)o1 [Compound 3, 7(S)-(4′-methoxy-β-D-glucosyl)-4-methoxy-6-pentyl-2-pyrone] | 68.44 ± 3.75% | – |
| CCCCCCCCCCCCCCCc1cc(O[C@@H]2O[C@H](CO)[C@@H](O)[C@H](O)[C@H]2O)cc(O)c1C(=O)Oc1cc(C)c(C(=O)O)c(O)c1 [Aquastatin A] | – | IC50 ([1]; competitive manner): 0.19 µM |
